# Test results as given in patent US20220380378A1 (ESSA Pharma, Inc., priority 2021, published 2022).
# Target: T1, androgen receptor (AR) (Homo sapiens, UniProt P10275, T878A)
# T1 sequence (P10275 1-920 T878A): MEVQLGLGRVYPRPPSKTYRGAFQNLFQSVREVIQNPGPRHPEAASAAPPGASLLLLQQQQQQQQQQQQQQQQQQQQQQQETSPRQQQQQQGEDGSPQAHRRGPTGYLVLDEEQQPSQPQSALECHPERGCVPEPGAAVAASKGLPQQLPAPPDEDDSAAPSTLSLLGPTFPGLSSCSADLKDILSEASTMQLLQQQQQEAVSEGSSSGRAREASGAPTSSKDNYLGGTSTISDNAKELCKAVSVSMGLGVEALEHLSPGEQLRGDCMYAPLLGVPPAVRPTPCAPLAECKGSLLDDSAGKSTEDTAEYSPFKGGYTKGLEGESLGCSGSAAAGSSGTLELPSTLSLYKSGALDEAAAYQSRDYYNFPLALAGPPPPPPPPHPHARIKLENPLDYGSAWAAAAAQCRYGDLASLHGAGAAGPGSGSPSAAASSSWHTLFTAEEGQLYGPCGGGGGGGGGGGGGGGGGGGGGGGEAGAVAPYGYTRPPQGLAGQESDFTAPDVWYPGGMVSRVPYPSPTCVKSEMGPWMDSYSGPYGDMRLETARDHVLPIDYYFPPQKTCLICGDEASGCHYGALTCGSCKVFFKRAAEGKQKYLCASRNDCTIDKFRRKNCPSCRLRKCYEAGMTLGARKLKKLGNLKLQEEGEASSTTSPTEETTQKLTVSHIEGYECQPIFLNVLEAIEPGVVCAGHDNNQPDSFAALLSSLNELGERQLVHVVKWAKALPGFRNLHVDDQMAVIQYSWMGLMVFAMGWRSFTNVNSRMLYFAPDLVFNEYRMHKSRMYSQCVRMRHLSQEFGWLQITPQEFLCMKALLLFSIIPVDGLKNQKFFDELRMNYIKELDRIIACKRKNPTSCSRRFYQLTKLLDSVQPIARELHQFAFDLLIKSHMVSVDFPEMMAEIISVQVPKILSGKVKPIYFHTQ
# Experiment: Androgen-induced PSA (6.1 kb)-luciferase reporter assay in LNCaP cells (R1881 1 nM)
# Assay type: cell-based
# Design: endogenous in cells; host or cells: LNCaP
# Conditions: 24 h, read-out: PSA-Luc IC50 Range
# Experimental: The PSA (6.1 kb)-luciferase reporter contains functional AREs (androgen response elements) to which AR binds in response to androgen to induce luciferase activity. LNCaP cells were transiently transfected with the PSA (6.1 kb)-luciferase reporter for 24 h, and then pretreated with vehicle (DMSO) or indicated concentration of representative compounds for one hour prior to the addition of synthetic androgen, R1881 (1 nM). After 24 h of incubation with R1881, the cells were harvested, and relative luciferase activities were determined (FIG. 1). To determine the IC50, treatments were normalized to vehicle control activity induced by R1881 (Table 2).
# Luciferase Assay: Cells were lysed using Passive Lysis Buffer (Promega) and then collected into V-bottom 96-well tissue culture plates. Lysates were centrifuged at 4° C. for 5 minutes at 3000 rpm. To measure luminescence of LNCaP cell lysates the Firefly Luciferase Assay System (Promega) was employed, according to manufacturer's protocol. Relative luminescence units (RLU) in cell lysates were detected for 10 seconds using Promega GloMax-Multi Detection Luminometer (Promega). Values were normalized to protein content. GraphPad Prism graphing software was used to calculate IC50 values.
# Statistical analyses were performed using GraphPad Prism (Version 6.01 for Windows; La Jolla, Calif., USA). Comparisons between treatment and control groups were compared using Two-Way ANOVA with post-hoc Dunnett's and Tukey's tests. Differences were considered statistically significant at P values less than 0.05.
row,IC50,Compound
1,> 2000 nM,CS(=O)(=O)Nc1nccc(COc2ccc(-n3ccc4c(Cl)c(OCCCl)c(C#N)cc43)cc2)n1 [Compound A26]
2,500 to 2000 nM,CS(=O)(=O)N1CCC(Oc2ccc3c(ccn3-c3cc(Cl)c(OCCCl)c(C#N)c3)c2)CC1 [Compound A200]
3,> 2000 nM,CS(=O)(=O)NC12CC(C(=O)Nc3ccc4c(ccn4-c4cc(Cl)c(OCCCl)c(C#N)c4)c3)(C1)C2 [Compound A133]
4,> 2000 nM,"CS(=O)(=O)Nc1nccc(COc2ccc3c(c2)C(c2cc(Cl)c(OCCCl)c(C#N)c2)CC3)n1 (centres unmarked) [Compound A31, N-(4-(((3-(3-chloro-4-(2-chloroethoxy)-5-cyanophenyl)-2,3-dihydro-1H-inden-5-yl)oxy)methyl)pyrimidin-2-yl)methanesulfonamide]"
5,> 2000 nM,CC(C)(c1ccc(OCc2ccnc(NS(C)(=O)=O)n2)cc1)c1cnc(N2CC3(CCC3)C2)c(C#N)c1 [Compound A166]
6,> 2000 nM,CS(=O)(=O)Nc1ncc2ccc(COc3cccc(-c4cc(Cl)c(OCCCl)c(C#N)c4)c3)cc2n1 [Compound A152]
7,> 2000 nM,CC(C)(c1ccc(OCc2ccnc(NS(C)(=O)=O)n2)cc1)c1cc(Cl)c(-c2cccc(Cl)c2)c(C#N)c1 [Compound A1]
8,500 to 2000 nM,CC(C)(c1ccc(-c2ccc3c(NS(C)(=O)=O)nccc3n2)cc1)c1cc(Cl)c(OCCCl)c(C#N)c1 [Compound A278]
9,< 500 nM,CC(C)(c1ccc(OCc2ccnc(NS(C)(=O)=O)c2N)cc1)c1cc(Cl)c(OCCCl)c(C#N)c1 [Compound A97]
10,> 2000 nM,CS(=O)(=O)Nc1nccc(COc2ccc3c(-c4cc(Cl)c(OCCCl)c(C#N)c4)ncnc3c2)n1 [Compound A18]
11,> 2000 nM,CC(NC12CC(NS(C)(=O)=O)(C1)C2)c1ccc2c(ccn2-c2cc(Cl)c(OCCCl)c(C#N)c2)c1 (centres unmarked) [Compound A184]
12,500 to 2000 nM,CC(C)(c1ccc(OCc2cccc(S(N)(=O)=O)c2)cc1)c1cc(Cl)c(OCCCl)c(C#N)c1 [Compound A50]
13,> 2000 nM,CC1(NS(C)(=O)=O)CCN(Cc2ccc3c(ccn3-c3cc(Cl)c(OCCCl)c(C#N)c3)c2)CC1 [Compound A238]
14,> 2000 nM,CS(=O)(=O)Nc1nccc(COc2ccc3c(cnn3-c3cc(Cl)c(OCCCl)c(C#N)c3)c2)n1 [Compound A60]
15,> 2000 nM,CS(=O)(=O)Nc1nccc(COc2ccc3c(-c4cc(Cl)c(OCCCl)c(C#N)c4)cnn3c2)n1 [Compound A64]
16,500 to 2000 nM,N#Cc1cc(-n2ccc3cc(OCc4coc(S(N)(=O)=O)c4)ccc32)cc(Cl)c1OCCCl [Compound A20]
17,> 2000 nM,CS(=O)(=O)CCOc1c(Cl)cc(-n2ccc3cc(OCc4ccnc(NS(C)(=O)=O)n4)ccc32)cc1C#N [Compound A72]
18,500 to 2000 nM,COc1c(Cl)cc(C(C)(C)c2ccc(OCC34CC(NS(C)(=O)=O)(C3)C4)cc2)cc1C#N [Compound A268]
19,> 2000 nM,"CS(=O)(=O)Nc1nccc(COc2ccc3c(c2)CCN3c2cc(Cl)c(OCCCl)c(C#N)c2)n1 [Compound A30, N-(4-(((1-(3-chloro-4-(2-chloroethoxy)-5-cyanophenyl)indolin-5-yl)oxy)methyl)pyrimidin-2-yl)methanesulfonamide]"
20,> 2000 nM,CS(=O)(=O)N1CCC(COc2ccc3c(ccn3-c3cc(Cl)c(OCCCl)c(C#N)c3)c2)CC1 [Compound A55]
21,> 2000 nM,CS(=O)(=O)NC1CCCN(CCc2ccc3c(ccn3-c3cc(Cl)c(OCCCl)c(C#N)c3)c2)C1 (centres unmarked) [Compound A245]
22,500 to 2000 nM,CC(C)(c1ccc(OCc2ccnc(NS(C)(=O)=O)n2)cc1)c1cc(Cl)c(N2CCOCC2)c(C#N)c1 [Compound A283]
23,500 to 2000 nM,CC(C)(c1ccc(OCc2ncncc2N)cc1)c1cc(Cl)c(OCCCl)c(C#N)c1 [Compound A98]
24,500 to 2000 nM,CC(C)(c1ccc(OCc2ccnc(NS(C)(=O)=O)n2)cc1)c1cc(Cl)c(N2CC3(CCC3)C2)c(C#N)c1 [Compound A267]
25,500 to 2000 nM,CC(C)(c1ccc(OCc2ccnc(NS(C)(=O)=O)n2)cc1)c1cc(C#N)c2ccc(Cl)cc2c1 [Compound A25]

row,IC50,Compound
1,> 2000 nM,CS(=O)(=O)N1CCO[C@@H](COc2ccc3c(ccn3-c3cc(Cl)c(OCCCl)c(C#N)c3)c2)C1 [Compound A205]
2,500 to 2000 nM,CS(=O)(=O)n1cc(COc2ccc3c(ccn3-c3cc(Cl)c(OCCCl)c(C#N)c3)c2)cn1 [Compound A52]
3,500 to 2000 nM,CS(=O)(=O)N[C@H]1CC[C@H](Oc2ccc3c(ccn3-c3cc(Cl)c(OCCCl)c(C#N)c3)c2)CC1 [Compound A242]
4,500 to 2000 nM,CS(=O)(=O)N1CC(CCOc2ccc3c(ccn3-c3cc(Cl)c(OCCCl)c(C#N)c3)c2)C1 [Compound A225]
5,500 to 2000 nM,CS(=O)(=O)NC12CC(CNc3ccc4c(ccn4-c4cc(Cl)c(OCCCl)c(C#N)c4)c3)(C1)C2 [Compound A146]
6,> 2000 nM,CS(=O)(=O)N[C@H]1CC[C@H](COc2ccc3c(ccn3-c3cc(Cl)c(OCCCl)c(C#N)c3)c2)CC1 [Compound A58]
7,500 to 2000 nM,CC(C)(c1ccc(-c2cnc3c(c2)OCCN3S(C)(=O)=O)cc1)c1cc(Cl)c(OCCCl)c(C#N)c1 [Compound A229]
8,> 2000 nM,CC(C)(c1ccc(-c2cnc3oc(NS(C)(=O)=O)nc3c2)cc1)c1cc(Cl)c(OCCCl)c(C#N)c1 [Compound A256]
9,500 to 2000 nM,CC(C)(c1ccc(OCc2ccnc(NS(C)(=O)=O)n2)cc1)c1cc(F)c(N2CCC2)c(C#N)c1 [Compound A251]
10,> 2000 nM,CC(C)(c1ccc(-c2ccc3c(c2)OCCN3S(C)(=O)=O)cc1)c1cc(Cl)c(OCCCl)c(C#N)c1 [Compound A228]
11,> 2000 nM,CC(c1cc(Cl)c(OCCCl)c(C#N)c1)n1ccc(-c2ccc3nc(NS(C)(=O)=O)ncc3c2)n1 (centres unmarked) [Compound A142]
12,500 to 2000 nM,CC(C)(c1ccc(-c2cnc3nc(NS(C)(=O)=O)cnc3c2)cc1)c1cc(Cl)c(OCCCl)c(C#N)c1 [Compound A219]
13,500 to 2000 nM,CS(=O)(=O)N1CC2(CC(COc3ccc4c(ccn4-c4cc(Cl)c(OCCCl)c(C#N)c4)c3)C2)C1 [Compound A162]
14,> 2000 nM,CS(=O)(=O)NCC1CN(Cc2ccc3c(ccn3-c3cc(Cl)c(OCCCl)c(C#N)c3)c2)CCO1 (centres unmarked) [Compound A170]
15,500 to 2000 nM,CS(=O)(=O)N[C@H]1CC[C@@H](Oc2ccc3c(ccn3-c3cc(Cl)c(OCCCl)c(C#N)c3)c2)C1 [Compound A226]
16,> 2000 nM,CS(=O)(=O)Nc1cc(NCc2ccc3c(ccn3-c3cc(Cl)c(OCCCl)c(C#N)c3)c2)ccn1 [Compound A78]
17,500 to 2000 nM,CC(C)(c1ccc(OCc2ccnc(NS(C)(=O)=O)n2)cc1)c1cc(F)c(N2CCCCC2)c(C#N)c1 [Compound A261]
18,500 to 2000 nM,CS(=O)(=O)N[C@@H]1CC[C@H](Oc2ccc3c(ccn3-c3cc(Cl)c(OCCCl)c(C#N)c3)c2)C1 [Compound A233]
19,> 2000 nM,CS(=O)(=O)NC12CC(COc3ccc4c(-c5cc(Cl)c(OCCCl)c(C#N)c5)csc4c3)(C1)C2 [Compound A138]
20,> 2000 nM,CC(C)(c1ccc(-c2ccc3nc(NS(C)(=O)=O)nnc3c2)cc1)c1cc(Cl)c(OCCCl)c(C#N)c1 [Compound A108]
21,> 2000 nM,CS(=O)(=O)Nc1nccc(COc2ccc3cc(-c4cc(Cl)c(OCCCl)c(C#N)c4)ccc3c2)n1 [Compound A148]
22,> 2000 nM,CS(=O)(=O)NCC1CCN1CCc1ccc2c(ccn2-c2cc(Cl)c(OCCCl)c(C#N)c2)c1 (centres unmarked) [Compound A248]
23,500 to 2000 nM,CC1(C)CN(c2c(F)cc(C(C)(C)c3ccc(OCc4ccnc(NS(C)(=O)=O)n4)cc3)cc2C#N)C1 [Compound A260]
24,> 2000 nM,CC(C)(c1ccc(-c2ccc3c(cnn3S(C)(=O)=O)c2)cc1)c1cc(Cl)c(OCCCl)c(C#N)c1 [Compound A111]
25,500 to 2000 nM,CC(C)(c1ccc(OCC23CCC(NS(C)(=O)=O)(CC2)CC3)cc1)c1cc(Cl)c(OCCCl)c(C#N)c1 [Compound A273]
